For 26 compounds, IC50 results are on record in patent publication US10703756B2, “Pyrrolo[2,3-D]pyrimidinyl, pyrrolo[2,3-B]pyrazinyl, pyrrolo[2,3-B]pyridinyl acrylamides and epoxides thereof” (Pfizer Inc., priority 2015, dated 2020).

For the test, the target named is T1, JAK3 enzyme (Homo sapiens, UniProt P52333).
T1 sequence (P52333 1-1124): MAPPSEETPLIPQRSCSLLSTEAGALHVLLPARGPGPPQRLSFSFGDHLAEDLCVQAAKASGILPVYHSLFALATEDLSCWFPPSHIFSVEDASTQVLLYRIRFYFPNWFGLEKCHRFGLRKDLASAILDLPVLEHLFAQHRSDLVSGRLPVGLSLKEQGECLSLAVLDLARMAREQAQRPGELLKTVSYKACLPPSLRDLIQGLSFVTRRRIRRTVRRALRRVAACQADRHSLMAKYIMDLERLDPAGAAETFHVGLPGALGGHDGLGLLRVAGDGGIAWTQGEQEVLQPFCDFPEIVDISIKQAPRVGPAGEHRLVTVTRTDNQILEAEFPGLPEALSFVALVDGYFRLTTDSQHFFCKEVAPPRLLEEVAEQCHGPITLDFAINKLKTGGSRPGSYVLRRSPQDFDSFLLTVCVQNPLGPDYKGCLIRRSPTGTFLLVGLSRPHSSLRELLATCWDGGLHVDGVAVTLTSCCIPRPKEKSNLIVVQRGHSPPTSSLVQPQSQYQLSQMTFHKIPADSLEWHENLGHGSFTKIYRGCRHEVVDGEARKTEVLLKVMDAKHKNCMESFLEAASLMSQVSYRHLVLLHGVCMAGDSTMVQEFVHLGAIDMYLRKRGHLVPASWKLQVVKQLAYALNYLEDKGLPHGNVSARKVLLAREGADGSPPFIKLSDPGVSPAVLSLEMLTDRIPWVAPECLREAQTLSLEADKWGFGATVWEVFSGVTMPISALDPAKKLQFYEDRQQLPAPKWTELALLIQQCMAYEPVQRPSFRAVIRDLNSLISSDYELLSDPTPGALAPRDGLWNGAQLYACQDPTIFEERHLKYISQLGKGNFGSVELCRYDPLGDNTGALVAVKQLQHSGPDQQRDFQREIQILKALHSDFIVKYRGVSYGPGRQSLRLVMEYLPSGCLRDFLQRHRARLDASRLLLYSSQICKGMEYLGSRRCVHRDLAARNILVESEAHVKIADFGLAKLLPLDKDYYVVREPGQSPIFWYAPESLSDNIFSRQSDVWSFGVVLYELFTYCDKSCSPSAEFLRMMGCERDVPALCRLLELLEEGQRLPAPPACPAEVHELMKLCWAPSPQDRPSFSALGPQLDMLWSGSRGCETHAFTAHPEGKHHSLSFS
Description: JAK Caliper Enzyme Assay at 4 μM ATP. It counts as biochemical. The procedure, abridged:
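Substrate conversion was kept within 20%-30% by adjusting enzyme and incubation for every preparation; peptide phosphorylation was quantified via on-chip mobility shift.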
Consider `C=CC(=O)N1C[C@H](Nc2ncnc3[nH]ccc23)CC[C@@H]1CNC(C)=O` (racemic) [Example 88, rac-N-(((2R,5R)-5-((7H-pyrrolo[2,3-d]pyrimidin-4-yl)amino)-1-acryloylpiperidin-2-yl)methyl)acetamide], for which half-maximal inhibition (IC50) required 1.5 nM.

`C=CC(=O)N1CC[C@@H](Oc2cnc3[nH]cc(C(=O)N[C@@H](C)COC)c3n2)C[C@@H]1C` (single isomer, unassigned) [Example 73] had an IC50 of 0.971 nM.

In the case of `C=CC(=O)N1CCN(c2cnc3[nH]cc(C(=O)N[C@@H](C)COC)c3n2)CC1(C)C` [Example 298, 2-(4-acryloyl-3,3-dimethylpiperazin-1-yl)-N-[(2S)-1-methoxypropan-2-yl]-5H-pyrrolo[2,3-b]pyrazine-7-carboxamide], the IC50 is 0.485 nM.

As to `C=CC(=O)N1CCC(Nc2cnc3[nH]cc(C(=O)NCc4ccc(F)c(C#N)c4)c3n2)CC1` [Example 189, 2-[(1-acryloylpiperidin-4-yl)amino]-N-(3-cyano-4-fluorobenzyl)-5H-pyrrolo[2,3-b]pyrazine-7-carboxamide], 0.689 nM corresponded to half-maximal inhibition (IC50).

With `C=CC(=O)N1C[C@H](COCCC#N)C[C@H](Nc2ncnc3[nH]ccc23)C1` [Example 101, 3-{[(3R,5S)-1-Acryloyl-5-(7H-pyrrolo[2,3-d]pyrimidin-4-ylamino)piperidin-3-yl]methoxy}propanenitrile], the IC50 was determined as 0.219 nM.

As for `C=CC(=O)N1CC[C@@H](Nc2cnc3[nH]cc(C(=O)NCC)c3n2)C[C@@H]1C` (single isomer, unassigned) [Example 42], the concentration for half-maximal inhibition (IC50) was 0.4 nM.

`C=CC(=O)N1CCC(Oc2cnc3[nH]cc(C(=O)N[C@@H]4CCC[C@H]4F)c3n2)CC1` [Example 229, 2-[(1-acryloylpiperidin-4-yl)oxy]-N-[(1R,2R)-2-fluorocyclopentyl]-5H-pyrrolo[2,3-b]pyrazine-7-carboxamide] returned an IC50 of 0.582 nM.

With `C=CC(=O)N1CCC(Oc2cnc3[nH]cc(C(=O)NC(C)C4CC4)c3n2)CC1` (racemic) [Example 220, Racemic-2-[(1-acryloylpiperidin-4-yl)oxy]-N-(1-cyclopropylethyl)-5H-pyrrolo[2,3-b]pyrazine-7-carboxamide], 0.211 nM corresponded to half-maximal inhibition (IC50).

`C=CC(=O)N1CCC(Oc2cnc3[nH]cc(C(=O)N[C@@H](C)COC)c3n2)CC1` [Example 228, 2-[(1-acryloylpiperidin-4-yl)oxy]-N-[(2S)-1-methoxypropan-2-yl]-5H-pyrrolo[2,3-b]pyrazine-7-carboxamide] displayed an IC50 of 0.229 nM.

For `C=CC(=O)N1CCN(c2cnc3[nH]cc(C(=O)N[C@H](C)COC)c3n2)CC1(C)C` [Example 327], the 50% inhibitory concentration (IC50) amounted to 0.546 nM.

Compound `C=CC(=O)N1CC[C@@H](Nc2cnc3[nH]cc(C(=O)NCC)c3n2)[C@@H](C)C1` (racemic) [Example 37, Cis-racemic-2-{[(3S,4R)-1-acryloyl-3-methylpiperidin-4-yl]amino}-N-ethyl-5H-pyrrolo[2,3-b]pyrazine-7-carboxamide] yielded an IC50 of 0.375 nM.

In the case of `C=CC(=O)N1CCC(Oc2cnc3[nH]cc(C(=O)NC45CC(C4)C5)c3n2)CC1` [Example 200, 2-[(1-acryloylpiperidin-4-yl)oxy]-N-(bicyclo[1.1.1]pent-1-yl)-5H-pyrrolo[2,3-b]pyrazine-7-carboxamide], the IC50 was 0.411 nM.

`C=CC(=O)N1CCC(Oc2cnc3[nH]cc(C(=O)NC4CCCC4(F)F)c3n2)CC1` (centres unmarked) [Example 219, 2-[(1-acryloylpiperidin-4-yl)oxy]-N-(2,2-difluorocyclopentyl)-5H-pyrrolo[2,3-b)pyrazine-7-carboxamide] displayed an IC50 of 0.363 nM.

As to `C=CC(=O)N1CC[C@H](Nc2cnc3[nH]cc(C(=O)NCC)c3n2)C[C@H]1C` (racemic) [Example 40, Trans-racemic-2-{[(2R,4S)-1-acryloyl-2-methylpiperidin-4-yl]amino}-N-ethyl-5H-pyrrolo[2,3-b]pyrazine-7-carboxamide], the IC50 worked out at 0.384 nM.

For `C=CC(=O)N1CC[C@@H](Nc2cnc3[nH]cc(C(=O)N[C@H](C)COC)c3n2)[C@@H](OC)C1` [Example 331, 2-{[(3S,4R)-1-acryloyl-3-methoxypiperidin-4-yl]amino}-N-[(2R)-1-methoxypropan-2-yl]-5H-pyrrolo[2,3-b]pyrazine-7-carboxamide], half-maximal inhibition (IC50) was put at 0.313 nM.

Consider `C=CC(=O)N1CCC(Oc2cnc3[nH]cc(C(=O)NC4CCCC4)c3n2)CC1` (racemic) [Example 204, Racemic-2-[(1-acryloylpiperidin-4-yl)oxy]-N-cyclopentyl-5H-pyrrolo[2,3-b]pyrazine-7-carboxamide], for which the IC50 amounted to 0.272 nM.

Turning to `C=CC(=O)N1CCC(Oc2cnc3[nH]cc(C(=O)N[C@H](C)CC)c3n2)CC1` [Example 227, 2-[(1-acryloylpiperidin-4-yl)oxy]-N-[(2R)-butan-2-yl]-5H-pyrrolo[2,3-b]pyrazine-7-carboxamide], half-maximal inhibition (IC50) was put at 0.279 nM.

Regarding `C=CC(=O)N1CCC(Oc2cnc3[nH]cc(C(=O)N[C@@H](C)CC)c3n2)CC1` [Example 205, 2-[(1-acryloylpiperidin-4-yl)oxy]-N-[(2S)-butan-2-yl]-5H-pyrrolo[2,3-b]pyrazine-7-carboxamide], the IC50 is 0.138 nM.

The compound `C=CC(=O)N1CCC(Oc2cnc3[nH]cc(C(=O)N[C@@H]4CCC[C@@H]4F)c3n2)CC1` [Example 230, 2-[(1-acryloylpiperidin-4-yl)oxy]-N-[(1R,2S)-2-fluorocyclopentyl]-5H-pyrrolo[2,3-b]pyrazine-7-carboxamide] had an IC50 of 0.305 nM.

`C=CC(=O)N1CC[C@@H](Oc2cnc3[nH]cc(C(=O)NCC)c3n2)[C@H](C)C1` (single isomer, unassigned) [Example 47] displayed an IC50 of 1.18 nM.

Take `C=CC(=O)N1C[C@@H](CF)C[C@@H](Nc2ncnc3[nH]ccc23)C1` (single isomer, unassigned) [Example 103]: inhibition was half-maximal at 0.424 nM (IC50).

`C=CC(=O)N1C[C@@H](CC#N)C[C@@H](Nc2ncnc3[nH]ccc23)C1` (single isomer, unassigned) [Example 106] registered an IC50 of 0.125 nM.

In the case of `C=CC(=O)N1CCC(Nc2cnc3[nH]cc(C(=O)NCCC4CC4)c3n2)CC1` [Example 178, 2-[(1-acryloylpiperidin-4-yl)amino]-N-(2-cyclopropylethyl)-5H-pyrrolo[2,3-b]pyrazine-7-carboxamide], 0.442 nM corresponded to half-maximal inhibition (IC50).

The compound `C=CC(=O)N1CC[C@@H](Oc2cnc3[nH]cc(C(=O)NCC)c3n2)C[C@@H]1C` (single isomer, unassigned) [Example 79] returned a concentration for half-maximal inhibition (IC50) of 0.608 nM.

`C=CC(=O)N(C)C1CN(c2cnc3[nH]cc(C(=O)N[C@H](C)COC)c3n2)C1` [Example 86, 2-{3-[acryloyl(methyl)amino]azetidin-1-yl}-N-[(2R)-1-methoxypropan-2-yl]-5H-pyrrolo[2,3-b]pyrazine-7-carboxamide]: the midpoint of inhibition, the IC50, lay at 0.515 nM.

In turn, `C=CC(=O)N1CCC(N(C)c2cnc3[nH]cc(C(=O)NC(C)C)c3n2)CC1` [Example 64, 2-[(1-acryloylpiperidin-4-yl)(methyl)amino]-N-(propan-2-yl)-5H-pyrrolo[2,3-b]pyrazine-7-carboxamide] gave an IC50 of 0.408 nM.

The IC50 is the concentration that inhibits the measured activity by half. High values mean lower potency, low ones higher potency.
